Patent US12365667B2, “Sulfone pyridine alkyl amide-substituted heteroaryl compounds” (BRISTOL-MYERS SQUIBB COMPANY, priority 2017, dated 2025)

test system: IFNα-induced STAT phosphorylation (pSTAT5) in human whole blood; assay: IFNα-Induced STAT Phosphorylation in Human Whole Blood; format: cell-based; details: 1 h incubation with compound, 1000 U/mL recombinant human IFNα A/D for 15 min, pSTAT5 in CD3 positive population, read-out: IFNα-Induced Stat Phosph. (IC50)

| SMILES | IC50 |
| --- | --- |
| CNC(=O)c1cnc(Nc2cc(C3CC3)nc(C3CC3)n2)cc1Nc1ncccc1S(C)(=O)=O [Example 228] | 181 nM |
| CNC(=O)c1cnc(Nc2cc(C3CC3)nc(C)n2)cc1Nc1ncccc1S(C)(=O)=O [Example 229] | 47 nM |
| CNC(=O)c1cnc(Nc2cc(C#N)c(C)cn2)cc1Nc1ncccc1S(C)(=O)=O [Example 230] | 22 nM |
| CNC(=O)c1cnc(Nc2cc(C(F)(F)F)c(C#N)cn2)cc1Nc1ncccc1S(C)(=O)=O [Example 231] | 360 nM |
| CNC(=O)c1cnc(Nc2cc(C#N)c(C(F)(F)F)cn2)cc1Nc1ncccc1S(C)(=O)=O [Example 232] | 131 nM |
| CNC(=O)c1cnc(Nc2cc(C)c(C#N)cn2)cc1Nc1ncccc1S(C)(=O)=O [Example 233] | 61 nM |
| CCC(=O)Nc1cc(Nc2ncccc2S(C)(=O)=O)c(C(=O)NC)cn1 [Example 235] | 144 nM |
| CNC(=O)c1cnc(NC(=O)C2CC2)cc1Nc1ncccc1S(C)(=O)=O [Example 236] | 13 nM |
| CNC(=O)c1cnc(NC(=O)OC)cc1Nc1ncccc1S(C)(=O)=O [Example 237] | 1080 nM |
| CNC(=O)c1cnc(Nc2cccc(-c3ccccc3)n2)cc1Nc1ncccc1S(C)(=O)=O [Example 238] | 2450 nM |
| CNC(=O)c1cnc(NC(=O)C2CCC2)cc1Nc1ncccc1S(C)(=O)=O [Example 239] | 288 nM |
| CNC(=O)c1cnc(Nc2ccc(OC(F)(F)F)cn2)cc1Nc1ncccc1S(C)(=O)=O [Example 240] | 115 nM |
| CCC(=O)Nc1cc(Nc2nc(C)ccc2S(C)(=O)=O)c(C(=O)NC)cn1 [Example 241] | 203 nM |
| CNC(=O)c1cnc(NC(=O)C2CC2)cc1Nc1nc(C)ccc1S(C)(=O)=O [Example 242] | 50 nM |
| CNC(=O)c1nnc(Nc2ccc(C(C)(C)C)nn2)cc1Nc1ncccc1S(C)(=O)=O [Example 245, 6-((6-(tert-butyl)pyridazinyl-3-yl)amino)-N-(methyl-d3)-4-((3-(methylsulfonyl)pyridin-2-yl)amino)pyridazine-3-carboxamide] | 10 nM |
| [2H]C([2H])([2H])NC(=O)c1nnc(NC(=O)[C@H]2CC23CC3)cc1Nc1ncccc1S(C)(=O)=O [Example 253, (S)—N-(methyl-d3)-4-((3-(methylsulfonyl)pyridin-2-yl)amino)-6-(spiro[2.2]pentane-1-carboxamido)pyridazine-3-carboxamide] | 47 nM |
| CNC(=O)c1nnc(Nc2cc(C)nc(C)n2)cc1Nc1ncccc1[S+](C)[O-] (stereo not drawn) [Example 254] | 186 nM |
| CNC(=O)c1nnc(Nc2ccc(OC)nn2)cc1Nc1ncccc1[S+](C)[O-] (stereo not drawn) [Example 255] | 466 nM |
| CNC(=O)c1nnc(Nc2ccn(C)n2)cc1Nc1ncccc1[S+](C)[O-] (stereo not drawn) [Example 256] | 744 nM |
| CNC(=O)c1nnc(Nc2ccc(C(C)(C)NC3COC3)cn2)cc1Nc1ncccc1S(C)(=O)=O [compound 170] | 11 nM |
| CCNC(=O)c1nnc(Nc2cc(C3CC3)nc(C)n2)cc1Nc1ncccc1S(C)(=O)=O [compound 212] | 1080 nM |
| Cn1ccc(Nc2cc(Nc3ncccc3S(C)(=O)=O)c(C(N)=O)nn2)n1 [compound 214] | 46 nM |

same assay, conditions: Homo sapiens, 1 h incubation with compound, 1000 U/mL recombinant human IFNα A/D for 15 min, pSTAT5 in CD3 positive population, read-out: IFNα-Induced Stat Phosph. (IC50)

| SMILES | IC50 |
| --- | --- |
| [2H]C([2H])([2H])NC(=O)c1cnc(Nc2ccc(-c3ccccc3)cn2)cc1Nc1ncccc1S(C)(=O)=O [Example 234, N-(methyl-d3)-4-((3-(methylsulfonyl)pyridin-2-yl)amino)-6-((5-phenylpyridin-2-yl)amino)nicotinamide] | 636 nM |
| [2H]C([2H])([2H])NC(=O)c1nnc(Nc2ccc(OC(F)F)nn2)cc1Nc1ncccc1S(C)(=O)=O [Example 246, 6-((6-(difluoromethoxy)pyridazin-3-yl)amino)-N-(methyl-d3)-4-((3-(methylsulfonyl)pyridin-2-yl)amino)pyridazine-3-carboxamide] | 34 nM |
| [2H]C([2H])([2H])NC(=O)c1nnc(Nc2ccc(C(C)C)nn2)cc1Nc1ncccc1S(C)(=O)=O [Example 247, 6-((6-isopropylpyridazin-3-yl)amino)-N-(methyl-d3)-4-((3-(methylsulfonyl)pyridin-2-yl)amino)pyridazine-3-carboxamide] | 6 nM |
| [2H]C([2H])([2H])NC(=O)c1nnc(Nc2cccnn2)cc1Nc1ncccc1S(C)(=O)=O [Example 251, N-(methyl-d3)-4-((3-(methylsulfonyl)pyridin-2-yl)amino)-6-(pyridazin-3-ylamino)pyridazine-3-carboxamide] | 7 nM |
| [2H]C([2H])([2H])NC(=O)c1nnc(NC(=O)[C@@H]2CC23CC3)cc1Nc1ncccc1S(C)(=O)=O [Example 252, (R)—N-(methyl-d3)-4-((3-(methylsulfonyl)pyridin-2-yl)amino)-6-(spiro[2.2]pentane-1-carboxamido)pyridazine-3-carboxamide] | 53 nM |
